{
  "source": "patent US7615380B2",
  "about": "“Methods for modulating an immune response by modulating KRC activity” (President and Fellows of Harvard College, priority 2001, dated 2009)",
  "key": {"TRAF2, TRAF5, TRAF6": {"system": "TRAF2, TRAF5, TRAF6", "experiment": "Coimmunoprecipitation with TRAF family members in 293T cells", "assay_type": "binding", "text": "FIGS. 1(A)-1(E) show the interaction of amino acid residues 204 to 1055 of KRC (“KRC tr”) (amino acids 204-1055 of SEQ ID NO:2) with TRAF family members. […] FIG. 1(B) upper panel depicts the interaction of KRC tr with TRAFs in mammalian cells. 293 T cells were cotransfected with the indicated FLAG-TRAFs and MYC-tagged KRC tr, and immunoprecipitated with anti-MYC antibody, followed by blotting with anti-FLAG antibody. FIG. 1(B) lower panel depicts the direct western blot of overexpressed TRAFS and KRC tr with anti-FLAG or anti-MYC. FIG. 1(C) depicts the differential interaction of KRC tr with TRAF proteins. The coimmunoprecipitation experiments were performed in the presence of 300 mM NaCl instead of 137 mM NaCl. FIG. 1(D) depicts KRC tr interacting with TRAF2 lacking the Ring finger domain. 293 T cells were transfected with MYC-KRC tr and with FLAG tagged TRAF2 or with FLAG-tagged TRAF2 (87-501). FIG. 1(E) depicts the interaction of KRC tr with endogenous TRAF2 but not with endogenous TRAF5 or TRAF6. 293T were transfected with an expression vector encoding an MYC-tagged KRC tr, or empty plasmid. Lysates from 293T cells were incubated with anti-MYC antibodies. Coimmunoprecipitated endogenous TRAF was detected by western blotting with specific anti-TRAF antibodies.\nEffectene™ mediated transfections into 293T cells were performed. […]"}, "IL-2": {"system": "IL-2", "experiment": "IL-2 ELISA in retrovirally transduced primary CD4+ T cells", "assay_type": "cell-based", "details": "anti CD3 or anti CD3 plus CD28, 24 hours", "experimental": "In panel A Jurkat T cells were stably transfected with vector (pEF) or KRC expression plasmids. Stable clones were stimulated for 18 hours with PMA (50 ng/mL) plus ionomycin (2 μM) and IL-2 production was measured by ELISA. In panel B Primary CD4+ T cells were activated for 36 hours and subsequently transduced with control (RV), KRC, or KRC dominant negative (ZAS2) bicistronic GFP-expressing retroviruses. GFP-positive cells were sorted and stimulated for 24 hours with anti-CD3 or anti-CD3/anti-CD28 antibodies and IL-2 production was measured by ELISA. In panel C CD4 T cells from KRC +/+ or −/− mice were stimulated with anti-CD3 (1.0 μg/mL)/CD28 (0.5 μg/mL) antibodies for 24 hours and IL-2 production was measured by ELISA. In panel D CD4 T cells from KRC +/+ or −/− mice were stimulated with anti-CD3/CD28 antibodies for 72 hours in the presence of 200 U/mL human IL-2. IFNγ production was measured by ELISA.\nActivated CD4^+T cells were transduced by RV, RV-KRC or RV-ZAS2 as described previously (Szabo, S. J., et al. (2000) Cell 100:655-669).\nTherefore, the effects of KRC overexpression were studied in primary CD4+T cells as well as in the Jurkat line using a retroviral delivery system to express KRC in primary CD4+T cells. […] The ability of each population to produce IL-2 following subsequent activation by anti CD3 or anti CD3 plus CD28 was measured at 24 hours post-stimulation. […]"}},
  "data": [
    {"substance": "KRC: full-length KRC zinc finger protein (SEQ ID NO:2) overexpressed from an expression vector", "values": [
      {"measurement": "interaction with TRAF family members", "setting": "TRAF2, TRAF5, TRAF6", "value": "higher affinity with TRAF2 than with TRAF5 and TRAF6"},
      {"measurement": "IL-2 production, increase versus GFP control retrovirus", "setting": "IL-2", "value": "3 to 4", "unit": "fold"}
    ]}
  ]
}
